Tests used:
MV4-11 = experiment: Cell proliferation inhibition (CellTiter-Glo), MV4-11; assay type: cell-based; conditions: MV4-11 cells
Protocol: (§1) Test Example 2: Test of the Inhibitory Ability of Menin-MLL Interaction Inhibitors on Cell Proliferation
(§2) The inhibitory ability of the compounds of the present disclosure on the proliferation of tumor cell lines (including cell lines containing MLL fusion protein such as MV4-11, MOLM-13, THP-1 and NOMO-1, control cell lines without MLL fusion protein such as HL-60, K562 and MOLM-16, and cell lines containing NPM1 mutation such as OCI-AML3) was evaluated by using the cell viability analysis method. The cells were plated in 96-well plates at a certain concentration (e.g., 5,000-20,000 cells/well), and then an equal volume of culture medium containing 2 times the final concentration of the test compound (the final concentration ranging 10 from 1 nM to 10 μM) was added. The plates were placed in an incubator and cultured at 37° C. and 5% CO2 for 72-168 h. Before the test, an equal volume of CellTiter-Glo® Luminescent reagent was added, and the plate was incubated at room temperature for 10 min before detection using an ELISA reader (BMG LABTECH). The data were analyzed using GraphPad Prism software to obtain the IC50 value and compound fitting curve. The control compound 1 was prepared by referring to the method of Example 64 in WO2017214367.

[1] = target: Menin/MLL-4-43 peptide interaction (Homo sapiens (Human), UniProt O00255); experiment: Menin-MLL interaction inhibitory activity assay (fluorescence polarization competition); assay type: binding; conditions: FITC-MLL4-43-peptide, Menin recombinant protein
Menin/MLL-4-43 peptide interaction, sequence (O00255 whole entry, species assumed): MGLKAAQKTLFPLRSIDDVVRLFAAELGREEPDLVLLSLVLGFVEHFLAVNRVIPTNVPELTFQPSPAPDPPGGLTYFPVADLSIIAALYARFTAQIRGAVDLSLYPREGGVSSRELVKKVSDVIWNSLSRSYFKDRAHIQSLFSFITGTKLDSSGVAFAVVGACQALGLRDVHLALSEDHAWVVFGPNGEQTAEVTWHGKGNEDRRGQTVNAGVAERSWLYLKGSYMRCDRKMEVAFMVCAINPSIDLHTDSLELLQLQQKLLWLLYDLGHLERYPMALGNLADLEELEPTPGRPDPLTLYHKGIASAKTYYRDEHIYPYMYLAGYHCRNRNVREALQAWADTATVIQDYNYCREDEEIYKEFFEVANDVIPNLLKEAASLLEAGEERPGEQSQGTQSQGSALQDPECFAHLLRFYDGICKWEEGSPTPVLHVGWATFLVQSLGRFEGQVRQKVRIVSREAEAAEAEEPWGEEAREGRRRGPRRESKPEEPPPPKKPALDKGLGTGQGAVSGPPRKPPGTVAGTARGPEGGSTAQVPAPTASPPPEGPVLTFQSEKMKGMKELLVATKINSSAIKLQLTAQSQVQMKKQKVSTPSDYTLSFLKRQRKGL
Protocol: Test Example 1: Menin-MLL Interaction Inhibitory Activity Assay
The inhibition of Menin/MLL-4-43 peptide interaction by small molecule inhibitors was quantitatively detected by fluorescence polarization competition assay. The experiment was performed in a 384-well plate (Corning, Cat #3575) using a reaction buffer consisting of 50 mM Tris, pH 7.5, 50 mM NaCl, and 1 mM DTT. A 40 μL reaction system included 10 μL of 8 nM Menin recombinant protein and 10 μL of the test compound at different concentrations. The compound was pre-incubated with Menin protein for 15 min, and then 20 μL of 10 nM FITC-MLL4-43-peptide was added. After incubation on a shaker at 25° C. for 60 min, the fluorescence polarization signal (FP 485 520 520) was read using BMG PHERAStar detection. The experimental data was analyzed and processed by GraphPad Prism 6 software to obtain the IC50 value. The control compound 1 was prepared by referring to the method of Example 64 in WO2017214367.

OCI-AML3 = experiment: Cell proliferation inhibition (CellTiter-Glo), OCI-AML3 (NPM1 mutation); assay type: cell-based; conditions: OCI-AML3 cells
Protocol: as §1, §2

GI50 (MV4-11; 72 h) [nM]	IC50 [1] [nM]	GI50 (MV4-11; Homo sapiens, MV4-11, 72 h) [nM]	GI50 (OCI-AML3; Homo sapiens, OCI-AML-3, 168 h) [nM]	GI50 (OCI-AML3; 168 h) [nM]	Compound
86.1	113				CCN(C(=O)c1cc(F)ccc1Oc1cncnc1N1CC2(CCN(CC3CC4CCC3CC43CCC(=O)N3)CC2)C1)C(C)C (single isomer, unassigned) [Example 3-2]
	24	94.7			CCN(C(=O)c1cc(F)ccc1Oc1cncnc1N1CC2(CCN(CC3CC4CCC3CC43CCC(=O)N3)CC2)C1)C(C)C (single isomer, unassigned) [Example 3]
55	12.1				CCN(C(=O)c1cc(F)ccc1Oc1cncnc1N1CC2(CCN(CC3CC4CCC3CC43CCC(=O)N3)CC2)C1)C(C)C (single isomer, unassigned) [Example 4-1]
	60.7				CCN(C(=O)c1cc(F)ccc1Oc1cncnc1N1CC2(CCN(CC3CC4CCC3CC43CCC(=O)N3)CC2)C1)C(C)C (single isomer, unassigned) [Example 4-2]
61	29				CCN(C(=O)c1cc(F)ccc1Oc1cncnc1N1CC2(CCN(CC3CC4CCC3CC43CCC(=O)N3)CC2)C1)C(C)C (single isomer, unassigned) [Example 4]
	21.3	82.6			CC(C)N(C(=O)c1cc(F)ccc1Oc1cncnc1N1CC2(CCN(CC3CC4CCC3CC43CCC(=O)N3)CC2)C1)C(C)C (single isomer, unassigned) [Example 13-1]
	177				CC(C)N(C(=O)c1cc(F)ccc1Oc1cncnc1N1CC2(CCN(CC3CC4CCC3CC43CCC(=O)N3)CC2)C1)C(C)C (single isomer, unassigned) [Example 13-1a]
49.7	24.9				CC(C)N(C(=O)c1cc(F)ccc1Oc1cncnc1N1CC2(CCN(CC3CC4CCC3CC43CCC(=O)N3)CC2)C1)C(C)C (single isomer, unassigned) [Example 13-2]
25.2	16.5				CC(C)N(C(=O)c1cc(F)ccc1Oc1cncnc1N1CC2(CCN(CC3CC4CCC3CC43CCC(=O)N3)CC2)C1)C(C)C (single isomer, unassigned) [Example 13-2a]
153	142				CC(C)N(C(=O)c1cc(F)ccc1Oc1cncnc1N1CC2(CCN(CC3CC4CCC3CC43CCC(=O)N3)CC2)C1)C(C)C (single isomer, unassigned) [Example 13-2b]
	142				CC(C)N(C(=O)c1cc(F)ccc1Oc1nncnc1N1CC2(CCN(CC3CC4CCC3CC43CCC(=O)N3)CC2)C1)C(C)C (single isomer, unassigned) [Example 15-1b]
82.8	34.9				CCN(C(=O)c1cc(F)ccc1Oc1nncnc1N1CC2(CCN(C[C@H]3CC[C@]4(CC3)CC(C)C(=O)N4)CC2)C1)C(C)C (single isomer, unassigned) [Example 40-2]
	44.5				[2H]C([2H])([2H])C1C[C@]2(CC[C@@H](CN3CCC4(CC3)CN(c3ncnnc3Oc3ccc(F)cc3C(=O)N(CC)C(C)C)C4)CC2)NC1=O (single isomer, unassigned) [Example 42-2]
	36	74.4			CCN(C(=O)c1cc(F)ccc1Oc1cncnc1N1CC2(CCN(CC3CC4CCC3CC43COC(=O)N3)CC2)C1)C(C)C (single isomer, unassigned) [Example 50-1]
69.1	39.9				CCN(C(=O)c1cc(F)ccc1Oc1cncnc1N1CC2(CCN(CC3CC4CCC3CC43COC(=O)N3)CC2)C1)C(C)C (single isomer, unassigned) [Example 50-2]
	46.7	16.1	20.3		CC(C)N(C(=O)c1cc(F)ccc1Oc1cncnc1N1CC2(CCN(CC3CC4CCC3CC43COC(=O)N3)CC2)C1)C(C)C (single isomer, unassigned) [Example 51-1b]
11.7	70.7			31.5	CC(C)N(C(=O)c1cc(F)ccc1Oc1cncnc1N1CC2(CCN(CC3CC4CCC3CC43COC(=O)N3)CC2)C1)C(C)C (single isomer, unassigned) [Example 51-2a]
	141				CC(C)N(C(=O)c1cc(F)ccc1Oc1cncnc1N1CC2(CCN(CC3CC4CCC3CC43COC(=O)N3)CC2)C1)C(C)C (single isomer, unassigned) [Example 51-2b]
	135				CC(C)N(C(=O)c1cc(F)ccc1Oc1nncnc1N1CC2(CCN(CC3CC4CCC3CC43COC(=O)N3)CC2)C1)C(C)C (single isomer, unassigned) [Example 52-1]
11.9	38.7		40		CC(C)N(C(=O)c1cc(F)ccc1Oc1nncnc1N1CC2(CCN(CC3CC4CCC3CC43COC(=O)N3)CC2)C1)C(C)C (single isomer, unassigned) [Example 52-1b]

GI50 (MV4-11; 72 h) [nM]	IC50 [1] [nM]	GI50 (MV4-11; Homo sapiens, MV4-11, 72 h) [nM]	GI50 (OCI-AML3; Homo sapiens, OCI-AML-3, 168 h) [nM]	GI50 (OCI-AML3; 168 h) [nM]	Compound
	93.9				CC(C)N(C(=O)c1cc(F)ccc1Oc1nncnc1N1CC2(CCN(CC3CC4CCC3CC43COC(=O)N3)CC2)C1)C(C)C (single isomer, unassigned) [Example 52-2]
43.6	81.9			47.9	CC(C)N(C(=O)c1cc(F)ccc1Oc1nncnc1N1CC2(CCN(CC3CC4CCC3CC43COC(=O)N3)CC2)C1)C(C)C (single isomer, unassigned) [Example 52-2a]
	198			50.6	CC(C)N(C(=O)c1cc(F)ccc1Oc1nncnc1N1CC2(CCN(CC3CC4CCC3CC43COC(=O)N3)CC2)C1)C(C)C (single isomer, unassigned) [Example 52-2b]
	167				CC(C)N(C(=O)c1cc(F)ccc1Oc1nncnc1N1CC2(CCN(C[C@H]3CC[C@@]4(CCC(=O)N4)CC3)CC2)C1)C1CC1 [Example 11]
	103				CCN(C(=O)c1cc(F)ccc1Oc1nncnc1N1CC2(CCN(CC3CC4CCC3CC43CCC(=O)N3)CC2)C1)C(C)C (centres unmarked) [Example 14-1]
	90.9				CC(C)N(C(=O)c1cc(F)ccc1Oc1nncnc1N1CC2(CCN(CC3CC4CCC3CC43CCC(=O)N3)CC2)C1)C(C)C (centres unmarked) [Example 15-1]
		130			CC(C)N(C(=O)c1cc(F)ccc1Oc1nncnc1N1CC2(CCN(CC3CC4CCC3CC43CCC(=O)N3)CC2)C1)C1CC1 (centres unmarked) [Example 16-1]
	163				CC(C)N(C(=O)c1cc(F)ccc1Oc1nncnc1N1CC2(CCN(CC3CC4CCC3CC43CCC(=O)N3)CC2)C1)C1CC1 (centres unmarked) [Example 16-2]
	9.8	13.1	39.8		CCN(C(=O)c1cc(F)ccc1Oc1cncnc1N1CC2(CCN(C[C@H]3CC[C@]4(CC3)CC(C)(C)C(=O)N4)CC2)C1)C(C)C [Example 21]
	16.6	11.3	24		CC(C)N(C(=O)c1cc(F)ccc1Oc1cncnc1N1CC2(CCN(C[C@H]3CC[C@]4(CC3)CC(C)(C)C(=O)N4)CC2)C1)C(C)C [Example 22]
	16.3	13	32.1		CC(C)N(C(=O)c1cc(F)ccc1Oc1nncnc1N1CC2(CCN(C[C@H]3CC[C@]4(CC3)CC(C)(C)C(=O)N4)CC2)C1)C(C)C [Example 27]
	134				CC(C)N(C)C(=O)c1cc(F)ccc1Oc1nncnc1N1CC2(CCN(C[C@H]3CC[C@]4(CC3)CC(C)(C)C(=O)N4)CC2)C1 [Example 28]
	8.4	20.5			[2H]C([2H])([2H])C1(C([2H])([2H])[2H])C[C@]2(CC[C@@H](CN3CCC4(CC3)CN(c3ncnnc3Oc3ccc(F)cc3C(=O)N(CC)C(C)C)C4)CC2)NC1=O [Example 33]
	6.4	12.6			[2H]C([2H])([2H])C1(C([2H])([2H])[2H])C[C@]2(CC[C@@H](CN3CCC4(CC3)CN(c3ncnnc3Oc3ccc(F)cc3C(=O)N(C(C)C)C(C)C)C4)CC2)NC1=O [Example 34]
	3.6	11.7			CCN(C(=O)c1cc(F)ccc1Oc1cncnc1N1CC2(CCN(C[C@H]3CC[C@]4(CC3)C[C@@H](COC)C(=O)N4)CC2)C1)C(C)C [Example 35]
	4.4	13.1			COC[C@@H]1C[C@]2(CC[C@@H](CN3CCC4(CC3)CN(c3ncncc3Oc3ccc(F)cc3C(=O)N(C(C)C)C(C)C)C4)CC2)NC1=O [Example 36]
	23.8	20			CC1C[C@]2(CC[C@@H](CN3CCC4(CC3)CN(c3ncncc3Oc3ccc(F)cc3C(=O)N(C(C)C)C(C)C)C4)CC2)NC1=O (some centres unmarked) [Example 39]
	22.4				CC1C[C@]2(CC[C@@H](CN3CCC4(CC3)CN(c3ncnnc3Oc3ccc(F)cc3C(=O)N(C(C)C)C(C)C)C4)CC2)NC1=O (some centres unmarked) [Example 41-2]
	19.9	34.8			C=C1C[C@]2(CC[C@@H](CN3CCC4(CC3)CN(c3ncncc3Oc3ccc(F)cc3C(=O)N(C(C)C)C(C)C)C4)CC2)NC1=O [Example 62]

From patent US20250074910A1, “MENIN INHIBITOR AND USE THEREOF” (HITGEN INC., priority 2021, published 2025)
